From patent US20100087475A1, “PHARMACEUTICAL COMPOUNDS” (Biovali Laboratories International (Barbados) S.R.L., priority 2008, published 2010)

How the values were obtained:
[1] = system: Imidazoline I2 (Peripheral) Receptor; test: Radioligand binding, [3H] Idazoxan, kidney; design: species or system Wistar rat; conditions: compound at 10 μM
Experimental: (§1) Compounds of the invention were subjected to specific binding assays to test their ability to bind to the receptors and transporter proteins described below.
(I) Imidazoline I2 (Peripheral) Receptor:
• Reference: Brown et al., Brit. J. Pharmacol., 99:803-809, (1990) • Source: Wistar rat kidney • Ligand: 5 nM [^3H]

Dopamine D1 Receptor = target: T1, Dopamine D1 Receptor (Homo sapiens, UniProt P21728); test: Radioligand binding, [3H] SCH-23390; conditions: compound at 10 μM
T1 construct: expressed in transfected cells; host or cells: CHO cells
T1 sequence (P21728 whole entry): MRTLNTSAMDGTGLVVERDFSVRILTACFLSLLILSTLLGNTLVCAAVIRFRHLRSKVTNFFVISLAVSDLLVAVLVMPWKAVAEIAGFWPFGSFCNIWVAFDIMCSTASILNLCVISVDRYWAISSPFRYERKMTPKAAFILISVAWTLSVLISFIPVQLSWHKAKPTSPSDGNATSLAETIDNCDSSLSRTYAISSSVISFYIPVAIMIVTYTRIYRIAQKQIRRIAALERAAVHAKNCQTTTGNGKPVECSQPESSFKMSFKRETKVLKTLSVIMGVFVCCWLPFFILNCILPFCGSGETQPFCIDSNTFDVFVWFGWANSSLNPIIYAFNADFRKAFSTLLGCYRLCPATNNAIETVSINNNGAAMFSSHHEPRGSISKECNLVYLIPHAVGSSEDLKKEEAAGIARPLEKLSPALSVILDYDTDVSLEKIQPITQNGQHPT
Experimental: as §1
(d) Dopamine D1 Receptor:
• Reference: Dearry et al., Nature, 347:72-76, (1990) • Source: Human recombinant CHO cells • Ligand: 1.4 nM [3H] SCH-23390 • Vehicle: 1% DMSO • Incubation time/Temp: 2 hours @ 37° C. • Incubation buffer: 50 mM Tris-HCl, pH 7.4, 150 mM NaCl, 1.4 mM ascorbic acid, 0.001% BSA • Non Specific ligand: 10 μM (+)-butaclamol • Kd: 1.4 nM • Bmax: 0.63 pmole/mg protein • Specific binding: 90% • Quantitation method: Radioligand binding • Significance criteria: ≧50% of maximum stimulation or inhibition

VMAT-2 = target: T2, VMAT-2 (Rattus norvegicus, UniProt Q01827); test: [3H] Dihydrotetrabenazine binding assay for VMAT-2 (Assay B); conditions: [3H] dihydrotetrabenazine 5 nM, rat brain homogenate, competition binding
T2 construct: from tissue; host or cells: rat brain, 6 mm coronal slice incorporating the striatum, homogenate
T2 sequence (Q01827 whole entry): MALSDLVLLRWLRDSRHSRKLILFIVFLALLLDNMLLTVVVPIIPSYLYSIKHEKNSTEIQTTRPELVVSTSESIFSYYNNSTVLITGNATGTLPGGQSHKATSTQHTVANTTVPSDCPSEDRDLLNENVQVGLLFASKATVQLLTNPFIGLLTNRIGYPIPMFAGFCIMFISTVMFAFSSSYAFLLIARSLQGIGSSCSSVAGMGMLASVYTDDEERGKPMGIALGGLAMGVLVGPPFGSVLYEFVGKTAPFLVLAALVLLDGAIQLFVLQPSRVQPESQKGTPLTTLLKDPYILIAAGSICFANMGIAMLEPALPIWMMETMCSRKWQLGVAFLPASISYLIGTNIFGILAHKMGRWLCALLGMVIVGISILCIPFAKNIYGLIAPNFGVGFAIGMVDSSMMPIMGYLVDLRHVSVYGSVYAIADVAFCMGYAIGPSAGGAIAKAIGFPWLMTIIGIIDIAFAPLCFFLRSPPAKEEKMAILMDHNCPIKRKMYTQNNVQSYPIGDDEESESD
Description: Screen for VMAT-2 binding activity using a [^3H] Dihydrotetrabenazine binding Assay
Dihydrotetrabenazine is a very potent and selective inhibitor of VMAT-2, and binds with high affinity (nM range) to this vesicular transporter. [^3H] Dihydrotetrabenazine has been successfully used for many years as a radioligand to label VMAT-2 in human, bovine and rodent brain (e.g. Scherman et al. J. Neurochem. 50, 1131-1136 (1988); Near et al. Mol. Pharmacol. 30, 252-257 (1986); Kilbourn et al. Eur. J. Pharmacol. 278, 249-252 (1995); and Zucker et al. Life Sci. 69, 2311-2317 (2001)).
Charles River CD-1 rats were euthanized by decapitation and the brains dissected free and placed in ice cold PBS. The chilled brain was placed in a coronal brain matrix (Activational Systems, Inc) with 1 mm intervals. Single edge razor blades were inserted such that a 6 mm slice incorporating the striatum was removed. The tissue was weighed and placed in an ice-cold hand homogenizer, 10 volumes of KBS-EDTA (137 mM KCl, 3 mM NaCl, 8 mM K2HPO4, 1.5 mM NaH2PO4, 1 mM EDTA, pH 8.0) were added and the tissue homogenized with 10 strokes (maintaining on ice). Aliquots were placed into 500 μl microfuge tubes and then stored at −80° C. for later assays. A fresh aliquot was taken for protein assay. Protein concentrations were determined using BCA Protein Assay (Pierce Chemical) with bovine serum albumin as the standard. For VMAT2 assay, aliquots were thawed and placed on ice, and diluted with KBS-EDTA for a final protein concentration of 1 mg/ml.
Whatman GF/C filters (Acros) were presoaked with PBS/0.1% polyethylenimine at room temperature and then placed on a 48 place cell harvester (Brandel). Harvester was loaded with labeled tubes (12×75 mm) in the test tube rack. Into the tubes were placed 10 μl of the compound dilutions to their respective triplicate tubes and 1 μl of 10 mM TBZ added to the tubes used for non-specific binding measurements. Into each tube was then placed 0.5 ml of a 10 nM [^3H] dihydrotetrabenazine (DTBZ) dilution (American Radiolabeled Chemicals) in KBS-EDTA, the tubes were vortexed, and then 0.5 ml of the 1 mg/ml rat forebrain tissue homogenate solution was added into all tubes. Each tube was vortexed briefly and then incubated at room temperature for 30 minute.
Final concentrations of samples were 500 μg protein, 5 nM [3H]DTBZ; 10 μM TBZ (for nonspecific tubes) in 1 ml total volume. […] Filter circles were placed in scintillation vials and 10 ml of Universol (ICN) was added, samples incubated overnight and then counted on a Packard Tri-Carb 1600 scintillation counter.
Competition binding isotherms were analyzed with the use of computer-assisted nonlinear curve-fitting (LIGAND program) using both one and two site models.

Adrenergic α2A Receptor = target: T3, Adrenergic α2A Receptor (Homo sapiens, UniProt P08913); test: Radioligand binding, [3H] MK-912; conditions: compound at 10 μM
T3 construct: expressed in transfected cells; host or cells: insect Sf9 cells
T3 sequence (P08913 1-465): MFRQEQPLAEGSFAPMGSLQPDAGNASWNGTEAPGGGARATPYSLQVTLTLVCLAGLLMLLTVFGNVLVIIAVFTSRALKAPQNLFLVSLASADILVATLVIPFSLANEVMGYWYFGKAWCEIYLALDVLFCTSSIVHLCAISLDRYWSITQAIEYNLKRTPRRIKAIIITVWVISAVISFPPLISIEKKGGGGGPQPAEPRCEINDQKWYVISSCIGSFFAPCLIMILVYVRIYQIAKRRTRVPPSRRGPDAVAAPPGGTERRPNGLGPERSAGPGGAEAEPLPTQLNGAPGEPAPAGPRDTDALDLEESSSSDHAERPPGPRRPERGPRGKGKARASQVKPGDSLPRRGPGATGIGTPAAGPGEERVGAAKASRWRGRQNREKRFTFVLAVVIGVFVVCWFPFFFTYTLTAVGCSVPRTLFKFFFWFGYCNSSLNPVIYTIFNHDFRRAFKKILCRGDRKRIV
Experimental: as §1
(a) Adrenergic α2A Receptor:
• Reference: S. Uhlçn et al. J. Pharmacol. Exp. Ther., 271:1558-1565 (1994) • Source: Human recombinant insect Sf9 cells • Ligand: 1 nM [^3H]

Sigma σ1 Receptor = target: T4, Sigma σ1 Receptor (Homo sapiens, UniProt Q99720); test: Radioligand binding, [3H] Haloperidol, jurkat cells; conditions: compound at 10 μM
T4 construct: Source: Human jurkat cells; endogenous in cells; host or cells: Jurkat cells
T4 sequence (Q99720 whole entry): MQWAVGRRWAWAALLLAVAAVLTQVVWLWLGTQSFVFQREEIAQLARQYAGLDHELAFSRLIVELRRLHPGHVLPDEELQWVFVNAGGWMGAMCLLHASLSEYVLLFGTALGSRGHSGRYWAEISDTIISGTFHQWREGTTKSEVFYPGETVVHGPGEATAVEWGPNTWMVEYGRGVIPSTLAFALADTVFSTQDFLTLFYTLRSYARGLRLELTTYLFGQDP
Experimental: as §1
• Reference: Ganaphthy et al., Pharmacol. Exp. Ther., 289:251-260, (1999) • Source: Human jurkat cells • Ligand: 8 nM [3H]

| Structure (SMILES) | % inhibition, (l) I2 Receptor (peripheral) [1] [%] | % inhibition, (d) D1 Receptor (Dopamine D1 Receptor) [%] | Bmax (VMAT-2) [fmol/µg] | Ki (VMAT-2) [nM] | % inhibition, (a) α2A Receptor (Adrenergic α2A Receptor) [%] | % inhibition, (m) σ1 Receptor (Sigma σ1 Receptor) [%] |
| --- | --- | --- | --- | --- | --- | --- |
| COc1cc2c(cc1O)[C@@H]1C[C@@H](O)[C@H](CC(C)C)CN1CC2 (single isomer, unassigned) [(+)-10-desmethyl-γ-dihydrotetrabenazine] | 24 | 29 | 0.174 ± 0.035 | 451 | 13 | 83 |
| COc1cc2c(cc1O)[C@@H]1C[C@@H](O)[C@H](CC(C)C)CN1CC2 (single isomer, unassigned) [(−)-10-desmethyl-γ-dihydrotetrabenazine] | 25 | 96 | 0.101 ± 0.009 | 1.82 | 69 | 55 |
